According to patent US7998940B2, “Aptamers to von Willebrand factor and their use as thrombotic disease therapeutics” (Archemix Corp., priority 2004, dated 2011):
Where two headings read alike, the source gives them in different places. Oligonucleotides are written 5' to 3', each unit as a sugar letter and its base; * is a phosphorothioate linkage, no mark a phosphodiester; rarer units and linkages stand in square brackets, end groups in braces. Plain capitals give the bases only. [PEG] = polyethylene glycol spacer within the chain; [invdT] = inverted (3'-3') thymidine; d = 2'-deoxy (DNA); m = 2'-O-methyl

Test system: full length human vWF (SEQ ID NO 7)
Experiment: dot blot KD determination and extent of binding, full length human vWF;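 also: dot blot binding of aptamers to full length human vWF across a protein titration, incubated 30 minutes at room temperature in 1x DPBS with BSA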
Conditions: for % binding @ 100 nM vWF: extent of aptamer binding at 100 nM full length human vWF; for Kd: full length human vWF, read-out: KD
[1] = Phase 3 modification, dot blot, 8 point protein titration

Row | Substance | % binding @ 100 nM vWF (Phase 3 modification) [%] | Kd [1] [nM] | other results
1 | ARC1361: ARC1346 with a mC to dC modification at position 36 (mGmCmGmUdGdCdAmGmUmGmCmCmUmUmCmGmGmCdCmGdTmGdCdGdGdTmGmCdCmUdCdCmGmUdCmAmCmGmC[invdT]) | 38.5 | 7.9 | –
2 | ARC1362: ARC1361 with single phosphorothioate phosphate backbone modification (mGmCmGmU*dGdCdAmGmUmGmCmCmUmUmCmGmGmCdCmGdTmGdCdGdGdTmGmCdCmUdCdCmGmUdCmAmCmGmC[invdT]) | 34.3 | 9.9 | –
3 | ARC1363: ARC1361 with single phosphorothioate phosphate backbone modification (mGmCmGmUdG*dCdAmGmUmGmCmCmUmUmCmGmGmCdCmGdTmGdCdGdGdTmGmCdCmUdCdCmGmUdCmAmCmGmC[invdT]; aptamer) | 32.7 | 12.7 | –
4 | ARC1364: ARC1361 with single phosphorothioate phosphate backbone modification (mGmCmGmUdGdC*dAmGmUmGmCmCmUmUmCmGmGmCdCmGdTmGdCdGdGdTmGmCdCmUdCdCmGmUdCmAmCmGmC[invdT]; aptamer) | 36.9 | 8.2 | –
5 | ARC1365: ARC1361 with single phosphorothioate phosphate backbone modification (mGmCmGmUdGdCdA*mGmUmGmCmCmUmUmCmGmGmCdCmGdTmGdCdGdGdTmGmCdCmUdCdCmGmUdCmAmCmGmC[invdT]; aptamer) | 35.4 | 10.8 | –
6 | ARC1366: ARC1361 with single phosphorothioate phosphate backbone modification (mGmCmGmUdGdCdAmGmUmGmCmCmUmUmCmGmGmC*dCmGdTmGdCdGdGdTmGmCdCmUdCdCmGmUdCmAmCmGmC[invdT]; aptamer) | 28.9 | 15.5 | –
7 | ARC1367: ARC1361 with single phosphorothioate phosphate backbone modification (mGmCmGmUdGdCdAmGmUmGmCmCmUmUmCmGmGmCdC*mGdTmGdCdGdGdTmGmCdCmUdCdCmGmUdCmAmCmGmC[invdT]; aptamer) | 30.4 | 13.9 | –
8 | ARC1369: ARC1361 with single phosphorothioate phosphate backbone modification (mGmCmGmUdGdCdAmGmUmGmCmCmUmUmCmGmGmCdCmGdT*mGdCdGdGdTmGmCdCmUdCdCmGmUdCmAmCmGmC[invdT]; aptamer) | 26.2 | 16.3 | –
9 | ARC1370: ARC1361 with single phosphorothioate phosphate backbone modification (mGmCmGmUdGdCdAmGmUmGmCmCmUmUmCmGmGmCdCmGdTmG*dCdGdGdTmGmCdCmUdCdCmGmUdCmAmCmGmC[invdT]; aptamer) | 22.5 | 10.1 | –
10 | ARC1371: ARC1361 with single phosphorothioate phosphate backbone modification (mGmCmGmUdGdCdAmGmUmGmCmCmUmUmCmGmGmCdCmGdTmGdC*dGdGdTmGmCdCmUdCdCmGmUdCmAmCmGmC[invdT]) | 32.1 | 8.4 | –
11 | ARC1372: ARC1361 with single phosphorothioate phosphate backbone modification (mGmCmGmUdGdCdAmGmUmGmCmCmUmUmCmGmGmCdCmGdTmGdCdG*dGdTmGmCdCmUdCdCmGmUdCmAmCmGmC[invdT]; aptamer) | 35.2 | 23.5 | –
12 | ARC1373: ARC1361 with single phosphorothioate phosphate backbone modification (mGmCmGmUdGdCdAmGmUmGmCmCmUmUmCmGmGmCdCmGdTmGdCdGdG*dTmGmCdCmUdCdCmGmUdCmAmCmGmC[invdT]; aptamer) | 33.0 | 7.1 | –
13 | ARC1374: ARC1361 with single phosphorothioate phosphate backbone modification (mGmCmGmUdGdCdAmGmUmGmCmCmUmUmCmGmGmCdCmGdTmGdCdGdGdT*mGmCdCmUdCdCmGmUdCmAmCmGmC[invdT]; aptamer) | 27.2 | 9.5 | –
14 | ARC1375: ARC1361 with single phosphorothioate phosphate backbone modification (mGmCmGmUdGdCdAmGmUmGmCmCmUmUmCmGmGmCdCmGdTmGdCdGdGdTmGmC*dCmUdCdCmGmUdCmAmCmGmC[invdT]; aptamer) | 25.5 | 8.8 | –
15 | ARC1376: ARC1361 with single phosphorothioate phosphate backbone modification (mGmCmGmUdGdCdAmGmUmGmCmCmUmUmCmGmGmCdCmGdTmGdCdGdGdTmGmCdC*mUdCdCmGmUdCmAmCmGmC[invdT]; aptamer) | 31.3 | 4.4 | –
16 | ARC1377: ARC1361 with single phosphorothioate phosphate backbone modification (mGmCmGmUdGdCdAmGmUmGmCmCmUmUmCmGmGmCdCmGdTmGdCdGdGdTmGmCdCmU*dCdCmGmUdCmAmCmGmC[invdT]; aptamer) | 30.9 | 7.4 | –
17 | ARC1378: ARC1361 with single phosphorothioate phosphate backbone modification (mGmCmGmUdGdCdAmGmUmGmCmCmUmUmCmGmGmCdCmGdTmGdCdGdGdTmGmCdCmUdC*dCmGmUdCmAmCmGmC[invdT]; aptamer) | 31.1 | 9.1 | –
18 | ARC1379: ARC1361 with single phosphorothioate phosphate backbone modification (mGmCmGmUdGdCdAmGmUmGmCmCmUmUmCmGmGmCdCmGdTmGdCdGdGdTmGmCdCmUdCdC*mGmUdCmAmCmGmC[invdT]; aptamer) | 31.3 | 10.4 | –
19 | ARC1380: ARC1361 with single phosphorothioate phosphate backbone modification (mGmCmGmUdGdCdAmGmUmGmCmCmUmUmCmGmGmCdCmGdTmGdCdGdGdTmGmCdCmUdCdCmGmU*dCmAmCmGmC[invdT]) | 32.5 | 12 | –
20 | ARC1381: ARC1361 with single phosphorothioate phosphate backbone modification (mGmCmGmUdGdCdAmGmUmGmCmCmUmUmCmGmGmCdCmGdTmGdCdGdGdTmGmCdCmUdCdCmGmUdC*mAmCmGmC[invdT]) | 35.8 | 8.7 | –
21 | dGdGdCdGTdGdCdAdGTdGdCdCTTdCdGdGdCdCdG-s-TdGdCdGdGTdGdCdCTdCdCdGTdCdAdCdGdCdC-3T (dGdGdCdGdTdGdCdAdGdTdGdCdCdTdTdCdGdGdCdCdG*dTdGdCdGdGdTdGdCdCdTdCdCdGdTdCdAdCdGdCdC[invdT]) [ARC1759] | – | – | % binding @ 100 nM vWF (Phase 4 and 5 modification): 46%; Kd (Phase 4 and 5 modification): 0.7 nM; binding to human vWF (in words, dot blot): measurable improvement in affinity relative to ARC1172
22 | dGdGdCdGTdGdCdAdGTdGdCdCTTdCdGdGdCdCdGTmGdCdGdGTmGmCdCmUdCdCmGmUmCdAdCdGdCdC-3T (dGdGdCdGdTdGdCdAdGdTdGdCdCdTdTdCdGdGdCdCdGdTmGdCdGdGdTmGmCdCmUdCdCmGmUmCdAdCdGdCdC[invdT]; aptamer) [ARC1340] | – | – | % binding @ 100 nM vWF (Phase 2 modification): 43%; Kd (Phase 2 modification): 7.4 nM
23 | dGdGdCdGTdGdCdAmGmUdGdCdCTTdCdGdGdCdCmGTmGdCdGdGTdGdCdCTdCdCmGmUmCdAdCdGdCdC-3T (dGdGdCdGdTdGdCdAmGmUdGdCdCdTdTdCdGdGdCdCmGdTmGdCdGdGdTdGdCdCdTdCdCmGmUmCdAdCdGdCdC[invdT]; aptamer) [ARC1339] | – | – | % binding @ 100 nM vWF (Phase 2 modification): 39%; Kd (Phase 2 modification): 2.4 nM
24 | mCmCmGmGmCdCmG-s-TmGdCdGdGTmGmCdCmUdCdCmGmUdCmAmCmGmUmUmCmCmGmUdGdCdAmGmUmGmCmCmGmG-3T (mCmCmGmGmCdCmG*dTmGdCdGdGdTmGmCdCmUdCdCmGmUdCmAmCmGmUmUmCmCmGmUdGdCdAmGmUmGmCmCmGmG[invdT]; aptamer) [ARC1546] | – | – | % binding @ 100 nM vWF (Phase 4 and 5 modification): 26%; Kd (Phase 4 and 5 modification): 24 nM
25 | mCmCmGmGmCdCmG-s-TmGdCdGdGTmGmCdCmUdCdCmGmUmCmAmCmUmUmUmGmUdGdCdAmGmUmGmCmCmGmG-3T (mCmCmGmGmCdCmG*dTmGdCdGdGdTmGmCdCmUdCdCmGmUmCmAmCmUmUmUmGmUdGdCdAmGmUmGmCmCmGmG[invdT]; aptamer) [ARC1535] | – | – | % binding @ 100 nM vWF (Phase 4 and 5 modification): 48.3%; Kd (Phase 4 and 5 modification): 27.1 nM
26 | mCmGmGmCdCmG-s-TmGdCdGdGTmGmCdCmUdCdCmGmUmCmAmCmUmUmUmGmUdGdCdAmGmUmGmCmCmG-3T (mCmGmGmCdCmG*dTmGdCdGdGdTmGmCdCmUdCdCmGmUmCmAmCmUmUmUmGmUdGdCdAmGmUmGmCmCmG[invdT]; aptamer) [ARC1534] | – | – | % binding @ 100 nM vWF (Phase 4 and 5 modification): 25.6%; Kd (Phase 4 and 5 modification): 62.8 nM
27 | mCmGmUdGdCdAmGmUmGmCmCPEGmGmGmCdCmG-s-TmGdCdGdGTmGmCdCmUdCdCmGmUdCmAmCmG-3T (mCmGmUdGdCdAmGmUmGmCmC[PEG]mGmGmCdCmG*dTmGdCdGdGdTmGmCdCmUdCdCmGmUdCmAmCmG[invdT]; aptamer) [ARC1531] | – | – | % binding @ 100 nM vWF (Phase 4 and 5 modification): 20.0%; Kd (Phase 4 and 5 modification): 1.5 nM
28 | mCmGmUdGdCdAmGmUmGmCmCPEGmGmGmCdCmG-s-TmGdCdGdGTmGmCdCmUdCdCmGmUmCmAmCmG-3T (mCmGmUdGdCdAmGmUmGmCmC[PEG]mGmGmCdCmG*dTmGdCdGdGdTmGmCdCmUdCdCmGmUmCmAmCmG[invdT]; aptamer) [ARC1532] | – | – | % binding @ 100 nM vWF (Phase 4 and 5 modification): 19.3%; Kd (Phase 4 and 5 modification): 2.6 nM
29 | mCmGmUdGdCdAmGmUmGmCmCmUmUmCmGmGmCdCmG-s-TmGdCdGdGTmGmCdCmUdCdCmGmUmCmAmCmG-3T (mCmGmUdGdCdAmGmUmGmCmCmUmUmCmGmGmCdCmG*dTmGdCdGdGdTmGmCdCmUdCdCmGmUmCmAmCmG[invdT]; aptamer) [ARC1529] | – | – | % binding @ 100 nM vWF (Phase 4 and 5 modification): 22.6%; Kd (Phase 4 and 5 modification): 12.3 nM
30 | mCmGmUdGdCdAmGmUmGmCmCmUmUmUmGmGmCdCmG-s-TmGdCdGdGTmGmCdCmUdCdCmGmUmCmAmCmG-3T (mCmGmUdGdCdAmGmUmGmCmCmUmUmUmGmGmCdCmG*dTmGdCdGdGdTmGmCdCmUdCdCmGmUmCmAmCmG[invdT]; aptamer) [ARC1530] | – | – | % binding @ 100 nM vWF (Phase 4 and 5 modification): 19.2%; Kd (Phase 4 and 5 modification): 15 nM
